Reference: patent US12319655B2, “RAF kinase inhibitors and methods of use thereof” (Deciphera Pharmaceuticals, LLC, priority 2021, dated 2025)

Experiments:
[1] = target: A-Raf kinase (SEQ. ID No: 1) (Homo sapiens (Human), UniProt P10398, Y301D/Y302D); assay: Biochemical Assay for A-Raf (1); conditions: Table J, assay version (1); read-out: ARAF (1) IC50
How it was run: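 IC50 values were derived by four-parameter sigmoidal fitting of percent inhibition, calculated from reaction rates over the 4–5 h window. Absorbance at 340 nm was tracked for 6 h at 30 °C via coupled PK/LDH NADH depletion. Conditions: 1 mM ATP, 30.1 nM MEK substrate, 5.55 nM A-Raf (Y301D/Y302D), Tris pH 7.5, 1% DMSO.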

[2] = test system: Miapaca-2 cells; assay: MiaPaca-2 Cell Proliferation Assay (1); format: cell-based; conditions: Homo sapiens, MIA PaCa-2, single agent, read-out: MiaPaca2 (1) IC50
How it was run: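 Resazurin was added after compound exposure and incubated 5-6 h, then fluorescence read at 540 nm excitation and 600 nm emission to give IC50.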

[3] = test system: H2405 cells; assay: H2405 Cell Proliferation Assay (1); format: cell-based; conditions: Homo sapiens, NCI-H2405
How it was run: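 Viability was read by resazurin reduction (ex 540 nm, em 600 nm; 5-6 h with 40 μL of 440 μM stock) after 67-72 h compound exposure at 37 °C.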

[4] = test system: WM3928 cells; assay: WM3928 Cell Proliferation Assay (1); format: cell-based
How it was run: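 IC50 was derived from resazurin fluorescence (ex 540, em 600 nm) after a 6–7 h dye incubation. Before that, cells had 67–72 h of compound exposure at 37 °C, 5% CO2.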

A-Raf kinase (SEQ. ID No: 1), sequence (P10398 other isoform, or with tags, fused parts or gaps Y301D (already in the parent)/Y302D (already in the parent)): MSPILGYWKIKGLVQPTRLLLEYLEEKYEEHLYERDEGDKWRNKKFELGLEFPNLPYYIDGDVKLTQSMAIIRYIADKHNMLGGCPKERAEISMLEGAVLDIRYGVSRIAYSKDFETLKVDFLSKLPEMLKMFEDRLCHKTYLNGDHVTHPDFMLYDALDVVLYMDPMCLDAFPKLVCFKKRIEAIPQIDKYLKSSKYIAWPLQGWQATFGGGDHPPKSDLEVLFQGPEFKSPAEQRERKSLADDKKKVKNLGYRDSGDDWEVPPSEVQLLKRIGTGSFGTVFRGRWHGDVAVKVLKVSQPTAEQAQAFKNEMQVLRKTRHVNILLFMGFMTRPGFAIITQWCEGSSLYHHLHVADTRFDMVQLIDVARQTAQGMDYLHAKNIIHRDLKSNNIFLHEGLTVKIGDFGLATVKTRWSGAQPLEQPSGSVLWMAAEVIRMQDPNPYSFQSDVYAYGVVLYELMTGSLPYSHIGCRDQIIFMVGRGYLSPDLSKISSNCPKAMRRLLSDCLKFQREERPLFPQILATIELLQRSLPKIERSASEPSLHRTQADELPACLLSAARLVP

Structure (SMILES) | IC50 [1] | IC50 [2] | IC50 [3] | IC50 [4]
CCOc1cc(-c2cc(NC(=O)c3ccnc(C(F)(F)F)c3)ccc2C)cc(-c2ccnc(NC(=O)C3CC3)c2)n1 [Example 12] | 1 to 10 µM | 1 to 10 µM | 0.1 to 0.5 µM | –
Cc1ccc(NC(=O)c2ccnc(C(F)(F)F)c2)cc1-c1cc(-c2ccnc(NC(=O)C3CC3)c2)n(C)c(=O)c1 [Example 13] | 1 to 10 µM | 1 to 10 µM | – | –
CC(=O)Nc1cc(-c2cc(-c3cc(NC(=O)c4ccnc(C(F)(F)F)c4)ccc3C)cc(C3CC3)n2)ccn1 [Example 14] | 1 to 10 µM | 1 to 10 µM | – | –
CC(=O)Nc1cc(-c2cc(-c3cc(NC(=O)c4ccnc(C(F)(F)F)c4)ccc3C)cc(N3CCOCC3)n2)ccn1 [Example 15] | 1 to 10 µM | 1 to 10 µM | ≤ 0.1 µM | –
Cc1ccc(NC(=O)c2ccnc(C(F)(F)F)c2)cc1-c1ccnc(-c2ccnc(N)c2)c1 [Example 16, N-(3-(2′-amino-[2,4′-bipyridin]-4-yl)-4-methylphenyl)-2-(trifluoromethyl)isonicotinamide] | 1 to 10 µM | 1 to 10 µM | 1 to 10 µM | 1 to 10 µM
Cc1ccc(NC(=O)c2ccnc(C(F)(F)F)c2)cc1-c1ccnc(-c2ccnc(NC(=O)CN(C)C)c2)c1 [Example 17] | 1 to 10 µM | 1 to 10 µM | – | –
Cc1ccc(NC(=O)c2ccnc(C(F)(F)F)c2)cc1-c1ccnc(-c2ccnc3c2CC(=O)N3)c1 [Example 18] | 1 to 10 µM | 1 to 10 µM | – | –
CC(=O)Nc1cc(-c2cc(-c3cc(NC(=O)c4ccnc(C(C)(C)C#N)c4)ccc3C)ccn2)ccn1 [Example 19] | 0.5 to 1 µM | 0.1 to 0.5 µM | ≤ 0.1 µM | –
Cc1cc(-c2cc(NC(=O)c3ccnc(C(F)(F)F)c3)ccc2C)cc(-c2ccnc3c2CC(=O)N3)n1 [Example 20] | 1 to 10 µM | 1 to 10 µM | – | –
Cc1ccc(NC(=O)c2cc(CN(C)C)cc(C(F)(F)F)c2)cc1-c1cncc(-c2ccnc(NC(=O)C3CC3)c2)n1 [Example 185] | 0.1 to 0.5 µM | – | ≤ 0.1 µM | ≤ 0.1 µM
Cc1ccc(NC(=O)c2ccnc(C(C)(C)F)c2)cc1-c1ccnc(-c2ccnc(NC(=O)C3CC3)c2)n1 [Example 186] | 0.5 to 1 µM | 1 to 10 µM | ≤ 0.1 µM | ≤ 0.1 µM
COC(C)(C)c1cc(C(=O)Nc2ccc(C)c(-c3ccnc(-c4ccnc(NC(=O)C5CC5)c4)n3)c2)ccn1 [Example 190] | 0.5 to 1 µM | 1 to 10 µM | – | ≤ 0.1 µM
CNC(=O)c1cc(-c2cccc(-c3cc(NC(=O)c4ccnc(C(C)(C)C#N)c4)ccc3C)c2)cnn1 [Example 191] | 1 to 10 µM | – | ≤ 0.1 µM | ≤ 0.1 µM
CNC(=O)c1cc(-c2nccc(-c3cc(NC(=O)c4ccnc(C(C)(C)C#N)c4)cnc3C)n2)ccn1 [Example 194] | 1 to 10 µM | 1 to 10 µM | – | 0.1 to 0.5 µM
CNC(=O)c1cc(-c2nc(-c3cc(NC(=O)c4ccnc(C(C)(C)C#N)c4)ccc3C)cc(C3CC3)n2)ccn1 [Example 196] | 1 to 10 µM | – | 0.1 to 0.5 µM | 0.1 to 0.5 µM
Cc1ccc(NC(=O)c2ccnc(C(C)(C)C#N)c2)cc1-c1cccc(-c2cc(NC(=O)C3(C)CC3)ncn2)c1 [Example 197] | 1 to 10 µM | 1 to 10 µM | – | ≤ 0.1 µM
CNC(=O)c1cc(-c2ccnc(-c3cc(NC(=O)c4ccnc(C(C)(C)C#N)c4)cnc3C)n2)ccn1 [Example 199] | 1 to 10 µM | – | 0.1 to 0.5 µM | 1 to 10 µM
Cc1ccc(NC(=O)c2ccnc(C(C)(C)C#N)c2)cc1-c1cccc(-c2cc(NC(=O)C3(F)CC3)ncn2)c1 [Example 200] | 1 to 10 µM | 1 to 10 µM | – | ≤ 0.1 µM
CNC(=O)c1cc(-c2cccc(-c3cc(NC(=O)c4ccnc(C(C)(C)C#N)c4)cnc3C)c2)cnn1 [Example 201] | 1 to 10 µM | – | 0.1 to 0.5 µM | 0.1 to 0.5 µM
Cc1ccc(NC(=O)c2ccnc(C3(C#N)CC3)c2)cc1-c1cccc(-c2cc(NC(=O)C3CC3)ncn2)c1 [Example 203] | 1 to 10 µM | 1 to 10 µM | – | ≤ 0.1 µM
CNC(=O)c1cc(-c2cc(-c3cc(NC(=O)c4ccnc(C(C)(C)C#N)c4)ccc3F)ccn2)ccn1 [Example 205] | 1 to 10 µM | – | – | 0.1 to 0.5 µM
Cc1ncc(NC(=O)c2ccnc(C(C)(C)C#N)c2)cc1-c1cccc(-c2cc(N)ncn2)c1 [Example 207] | 1 to 10 µM | – | 1 to 10 µM | –
Cc1cc(-c2cc(NC(=O)C3CC3)ncn2)cc(-c2cc(NC(=O)c3ccnc(C(C)(C)C#N)c3)ccc2C)c1 [Example 212] | 1 to 10 µM | 1 to 10 µM | ≤ 0.1 µM | –
Cc1ncc(NC(=O)c2ccnc(C(C)(C)C#N)c2)cc1-c1cccc(-c2cc(NC(=O)C(C)(C)C)ncn2)c1 [Example 213] | 1 to 10 µM | 1 to 10 µM | – | 0.1 to 0.5 µM

Structure (SMILES) | IC50 [1] | IC50 [2] | IC50 [3] | IC50 [4]
CNC(=O)c1cc(-c2cc(-c3cc(NC(=O)c4cnnc(C5CC5)c4)ccc3C)ccn2)ccn1 [Example 215] | 1 to 10 µM | 1 to 10 µM | – | 0.5 to 1 µM
Cc1ccc(NC(=O)c2ccnc(C(C)(C)C#N)c2)cc1-c1cc(-c2cc(NC(=O)C3CC3)ncn2)cc(C2CC2)c1 [Example 216] | 1 to 10 µM | 1 to 10 µM | – | ≤ 0.1 µM
Cc1ncc(NC(=O)c2ccnc(C(C)(C)C#N)c2)cc1-c1ccnc(-c2ccnc(NC(=O)C(C)(C)C#N)c2)c1 [Example 219] | 1 to 10 µM | 1 to 10 µM | – | 0.1 to 0.5 µM
Cc1ccc(NC(=O)c2ccnc(C3(C#N)CC3)c2)cc1-c1cccc(-c2cc(NC(=O)C3CC3)ncn2)n1 [Example 220] | 1 to 10 µM | 1 to 10 µM | – | 1 to 10 µM
Cc1ccc(NC(=O)c2ccnc(C(C)(C)C#N)c2)cc1-c1cccc(-c2ccnc(NC(=O)C3CC3)c2)c1 [Example 223] | 0.5 to 1 µM | – | ≤ 0.1 µM | ≤ 0.1 µM
Cc1ncc(NC(=O)c2ccnc(C(C)(C)C#N)c2)cc1-c1cccc(-c2cc(NC(=O)C3CC3)ncn2)n1 [Example 226] | 1 to 10 µM | 1 to 10 µM | – | 1 to 10 µM
Cc1ccc(NC(=O)c2ccnc(C(C)(C)C#N)c2)cc1-c1cccc(-c2cc(NC(=O)C3CC3)ncn2)n1 [Example 233] | 1 to 10 µM | 1 to 10 µM | – | 1 to 10 µM
COC(C)(C)C(=O)Nc1cc(-c2cc(-c3cc(NC(=O)c4ccnc(C(C)(C)C#N)c4)ccc3C)ccn2)ccn1 [Example 237] | 1 to 10 µM | – | 0.5 to 1 µM | –
CC(C)(C#N)c1cc(C(=O)Nc2ccc(C#N)c(-c3cccc(-c4cc(NC(=O)C5CC5)ncn4)c3)c2)ccn1 [Example 240] | 1 to 10 µM | – | 0.1 to 0.5 µM | –
CNC(=O)c1cc(-c2ccnc(-c3cc(NC(=O)c4ccnc(C(C)(C)C#N)c4)c(F)cc3C)n2)ccn1 [Example 242] | 1 to 10 µM | – | 0.1 to 0.5 µM | 0.1 to 0.5 µM
CNC(=O)c1cc(-c2ccnc(-c3cc(NC(=O)c4ccnc(C(C)(C)F)c4)ccc3C)n2)ccn1 [Example 246] | 1 to 10 µM | – | 0.1 to 0.5 µM | –
CNC(=O)c1cc(-c2cc(-c3cc(NC(=O)c4ccnc(C(C)(C)C#N)c4)ccc3C#N)ccn2)ccn1 [Example 247] | 1 to 10 µM | – | 0.1 to 0.5 µM | –
Cc1cc(F)c(NC(=O)c2cnnc(C3CC3)c2)cc1-c1nccc(-c2ccnc(NC(=O)C3CC3)c2)n1 [Example 252] | 1 to 10 µM | 1 to 10 µM | – | 0.5 to 1 µM
Cc1ccc(NC(=O)c2ccnc(C3CC3)c2)cc1-c1cccc(-c2cc(NC(=O)C3CC3)ncn2)c1 [Example 255] | 1 to 10 µM | – | 0.1 to 0.5 µM | ≤ 0.1 µM
Cc1ccc(NC(=O)c2ccnc(C(C)(C)C#N)c2)cc1-c1ccnc(-c2ccnc(NC(=O)C3CC3)c2)n1 [Example 257] | 0.5 to 1 µM | 1 to 10 µM | – | ≤ 0.1 µM
CNC(=O)c1cc(-c2cc(-c3cc(NC(=O)c4ccnc(C(C)(C)C#N)c4)ccc3F)cc(C)n2)ccn1 [Example 259] | 1 to 10 µM | – | 0.1 to 0.5 µM | –
Cc1cc(F)c(NC(=O)c2ccnc(C3(C#N)CC3)c2)cc1-c1ccnc(-c2ccnc(NC(=O)C3CC3)c2)n1 [Example 262] | 0.5 to 1 µM | 1 to 10 µM | – | ≤ 0.1 µM
Cc1cc(F)c(NC(=O)c2cnnc(C3CC3)c2)cc1-c1ccnc(-c2ccnc(NC(=O)C3CC3)c2)n1 [Example 263] | 1 to 10 µM | 1 to 10 µM | – | 0.5 to 1 µM
CCNC(=O)c1cc(-c2cc(-c3cc(NC(=O)c4ccnc(C(C)(C)C#N)c4)ccc3C)ccn2)ccn1 [Example 266] | 1 to 10 µM | – | 0.1 to 0.5 µM | –
CNC(=O)c1cc(-c2ccnc(-c3cc(NC(=O)c4ccnc(C(C)(C)OC)c4)ccc3C)n2)ccn1 [Example 268] | 1 to 10 µM | – | 0.1 to 0.5 µM | –
Cc1ncc(NC(=O)c2ccnc(C(C)C)c2)cc1-c1cccc(-c2ccnc(NC(=O)C3CC3)c2)n1 [Example 269] | 1 to 10 µM | – | ≤ 0.1 µM | –
Cc1cc(F)c(NC(=O)c2ccnc(C(C)(C)F)c2)cc1-c1cncc(-c2ccnc(NC(=O)C3CC3)c2)n1 [Example 276] | 0.1 to 0.5 µM | – | ≤ 0.1 µM | –
Cc1ncc(NC(=O)c2ccnc(C3CC3)c2)cc1-c1ccnc(-c2ccnc(NC(=O)C3CC3)c2)n1 [Example 277] | 1 to 10 µM | – | 0.1 to 0.5 µM | 0.1 to 0.5 µM
